This note sets out measurements from patent US20250214978A1, “AT2R AGONIST” (WUHAN HUMANWELL INNOVATIVE DRUG RESEARCH AND DEVELOPMENT …, priority 2022, published 2025).

SMILES strings stand for the structures. Where two headings read alike, the source gives them in different places.

What all share (format): in vitro ADME
A short description of data set [1]: Liver microsome stability assay. The note with it: Mouse liver microsomes; read-out: T1/2 (min) Mouse.
The nature of data set [2]: Free plasma protein binding (PPB) assay, equilibrium dialysis. To be noted: dialysis 6 hours at 37° C. The procedure: The dried dialysis membrane was soaked in ultrapure water for 1 hour, then soaked in 20% ethanol for 20 minutes, and then rinsed with ultrapure water for 2 to 3 times. Finally, the dried dialysis membrane was soaked in ultrapure water for 20 minutes for later use. The frozen plasma was thawed in a water bath at 37° C. for about 20 minutes. pH value of the plasma was measured after thawing was complete, and was adjusted to 7.4 with 1% phosphoric acid solution or 0.1M sodium hydroxide solution. […] The pretreated dialysis membrane was assembled into the dialysis plate according to product instructions, and 100 μL of receiving solution (100 mM phosphate buffer solution plus 0.002% Tween 80) was added to one side of the permeable membrane in each dialysis well. 20 μL of each of the final solution of the test compound and the final solution of the control compound were taken in a 96-well sample plate, two duplicate samples were made, and T0 sample was obtained, which was stored in a −20° C. refrigerator. Another 100 μL of each of the above-mentioned final solutions were taken to the other side of the membrane in the dialysis device, two duplicate samples were made, and incubated at 37° C. with constant shaking for 6 hours. After 6 hours of incubation, 20 μL of each of the dialyzed receiving solution and the administered plasma were taken, two duplicate samples were made, and sample A and sample B were obtained. Corresponding blank plasma or receiving solution of corresponding volume were added to sample B and sample A, respectively, allowing the volume ratio of plasma to buffer in each sample well to be 1:1. 300 μL of sample-containing internal standard acetonitrile solution was added to all the sample wells. The mixture was mixed well, and centrifuged at 5,500×g for 10 minutes. 150 μL of corresponding ultrapure water was added to the corresponding sample wells of the 96-well sample plate. 150 μL of the supernatant was taken into the sample wells, and mixed well. Then, LC/MS/MS analysis was performed. The calculation formula of fu is: […]
where: CR: peak area ratio measured in the receiving chamber well CD: peak area ratio measured in the supply chamber well.

A further data set concerns the target CYP3A4 (Homo sapiens (Human), UniProt P08684). The data set can be described thus: CYP inhibition assay in mixed human liver microsomes. To be noted: mixed (pooled) human liver microsomes, probe midazolam, read-out: Inhibition rate % CYP3A4 (midazolam).
The target of another data set is CYP2B6 (Homo sapiens (Human), UniProt P20813). The description is as above. The note with it: mixed (pooled) human liver microsomes, read-out: Inhibition rate % CYP2B6.
Sequence of CYP2B6 (P20813 whole entry): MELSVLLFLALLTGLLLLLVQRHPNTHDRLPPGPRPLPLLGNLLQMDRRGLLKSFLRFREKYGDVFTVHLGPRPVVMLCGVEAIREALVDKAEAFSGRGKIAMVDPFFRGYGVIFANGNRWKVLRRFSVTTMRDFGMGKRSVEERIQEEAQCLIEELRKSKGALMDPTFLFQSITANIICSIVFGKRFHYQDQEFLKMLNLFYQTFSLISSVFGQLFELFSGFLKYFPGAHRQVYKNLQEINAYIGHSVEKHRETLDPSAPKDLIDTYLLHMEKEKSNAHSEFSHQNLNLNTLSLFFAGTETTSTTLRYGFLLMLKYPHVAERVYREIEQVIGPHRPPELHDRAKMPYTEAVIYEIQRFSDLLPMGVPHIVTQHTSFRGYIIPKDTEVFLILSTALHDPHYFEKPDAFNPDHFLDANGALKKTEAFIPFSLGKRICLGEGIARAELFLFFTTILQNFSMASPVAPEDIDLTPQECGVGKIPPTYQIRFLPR
The next data set has as its target CYP2C19 (Homo sapiens (Human), UniProt P33261). Described as above. The note with it: mixed (pooled) human liver microsomes, read-out: Inhibition rate % CYP2C19.
The target in a further data set is CYP1A2 (Homo sapiens (Human), UniProt P05177). The description is as above.
Sequence of CYP1A2 (P05177 whole entry): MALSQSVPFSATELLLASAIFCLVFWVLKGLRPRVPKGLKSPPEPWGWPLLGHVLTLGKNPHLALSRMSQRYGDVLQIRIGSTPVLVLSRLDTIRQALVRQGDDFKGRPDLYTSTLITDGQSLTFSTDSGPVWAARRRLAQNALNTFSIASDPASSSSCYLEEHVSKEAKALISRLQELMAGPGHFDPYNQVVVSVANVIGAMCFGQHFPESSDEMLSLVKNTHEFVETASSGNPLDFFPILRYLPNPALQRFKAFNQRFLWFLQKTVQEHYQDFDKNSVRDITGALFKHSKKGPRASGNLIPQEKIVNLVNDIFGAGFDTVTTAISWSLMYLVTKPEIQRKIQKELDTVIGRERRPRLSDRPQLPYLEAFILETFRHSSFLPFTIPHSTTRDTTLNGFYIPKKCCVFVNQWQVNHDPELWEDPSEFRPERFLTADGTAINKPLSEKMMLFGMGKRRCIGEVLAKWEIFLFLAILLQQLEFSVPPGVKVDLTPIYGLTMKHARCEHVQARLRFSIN

Sequence of CYP2C19 (P33261 whole entry): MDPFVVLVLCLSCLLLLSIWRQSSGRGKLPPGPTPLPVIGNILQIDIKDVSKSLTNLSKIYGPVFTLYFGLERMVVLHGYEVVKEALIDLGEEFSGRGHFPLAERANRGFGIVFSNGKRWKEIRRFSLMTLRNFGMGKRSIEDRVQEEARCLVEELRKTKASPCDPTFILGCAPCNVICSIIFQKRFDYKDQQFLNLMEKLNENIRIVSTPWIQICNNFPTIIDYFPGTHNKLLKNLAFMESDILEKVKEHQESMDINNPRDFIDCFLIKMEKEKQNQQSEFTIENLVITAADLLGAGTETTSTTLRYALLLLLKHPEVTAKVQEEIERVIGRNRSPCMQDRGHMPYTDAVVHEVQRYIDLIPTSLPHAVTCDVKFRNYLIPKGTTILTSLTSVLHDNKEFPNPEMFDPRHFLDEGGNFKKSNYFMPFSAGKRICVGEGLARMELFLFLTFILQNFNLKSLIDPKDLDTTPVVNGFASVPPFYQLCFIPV
Sequence of CYP3A4 (P08684 whole entry): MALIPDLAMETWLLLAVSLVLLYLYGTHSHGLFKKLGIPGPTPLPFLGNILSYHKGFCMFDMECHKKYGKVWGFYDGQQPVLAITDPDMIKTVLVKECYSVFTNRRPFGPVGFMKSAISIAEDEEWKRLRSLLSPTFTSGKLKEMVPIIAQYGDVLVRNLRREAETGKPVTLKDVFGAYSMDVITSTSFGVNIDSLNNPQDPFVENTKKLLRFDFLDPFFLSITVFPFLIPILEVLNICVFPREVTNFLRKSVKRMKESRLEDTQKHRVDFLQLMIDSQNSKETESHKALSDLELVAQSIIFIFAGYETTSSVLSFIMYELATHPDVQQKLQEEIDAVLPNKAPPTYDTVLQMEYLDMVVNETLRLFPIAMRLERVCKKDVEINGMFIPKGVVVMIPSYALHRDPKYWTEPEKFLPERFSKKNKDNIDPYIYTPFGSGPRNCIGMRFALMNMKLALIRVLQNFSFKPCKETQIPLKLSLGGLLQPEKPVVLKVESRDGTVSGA

Consider `COC(=O)NS(=O)(=O)c1sc(CC(C)C)c(C)c1-c1ccc(Cn2ccnc2Cl)cc1` [Compound I-34, Methyl ((3-(4-((2-chloro-1H-imidazol-1-yl)methyl)phenyl)-5-isobutyl-4-methylthiophen-2-yl)sulfonyl)carbamate], for which the half-life at 1 μM in data set [1] amounted to 61.9 min. Besides, the fraction unbound at 6 h, 1 μM stood at 0.0141 in data set [2] (dog, pH 7.4, Canine plasma, read-out: fu % Canine); 0.008 in data set [2] (pH 7.4, Human plasma, read-out: fu % Human); 0.0093 in data set [2] (pH 7.4, Mouse plasma, read-out: fu % Mouse); 0.0289 in data set [2] (pH 7.4, Rat plasma, read-out: fu % Rat). In addition, the inhibition at 10 µM on CYP3A4 stood at 3.8%; on CYP2B6 it was 13.7%; on CYP2C19, 36.5%; against CYP1A2, 2.82%.
